In patent US11076594B2, “Pyrazolone compound or salt thereof, preparation method therefor, herbicide composition and use thereof” (QINGDAO KINGAGROOT CHEMICAL COMPOUNDS CO., LTD., priority 2015, dated 2021):

Key:
Assay type in all cases: in vivo
corn = assay: post-emergence stage experiment, crop (Table 1); conditions: post-emergence spray at 4-5 leaf stage, 250 g/ha active ingredient with 450 kg/ha water, rated after 3 weeks in greenhouse
In short: (§1)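 Weeds and crops grown in soil-filled pots in a greenhouse were sprayed at the 4-5 leaf stage (2-3 weeks after sowing). Compounds were applied in acetone with tween 80, diluted in water. After 3 weeks' culture, growth control was scored as fresh weight control rate.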

wheat [1] = assay: post-emergence stage experiment, crop (Table 1); conditions: post-emergence spray at 4-5 leaf stage, 250 g/ha active ingredient with 450 kg/ha water, rated after 3 weeks in greenhouse
In short: as §1

foxtail = assay: weed control effect in post-emergence stage (Table 1); parameters: key: Level 10: completely dead; Level 9: above 95% growth control rate; Level 8: above 90% growth control rate; Level 7: above 80% growth control rate; Level 6: above 70% growth control rate; Level 5: above 60% growth control rate; Level 4: above 50% growth control rate; Level 3: above 20% growth control rate; Level 2: 5%-20% growth control rate; Level 1: below 5% growth control rate; conditions: post-emergence spray at 4-5 leaf stage, 250 g/ha active ingredient with 450 kg/ha water, rated after 3 weeks in greenhouse
In short: as §1

echinochloa = assay: as above; parameters: key: Level 10: completely dead; Level 9: above 95% growth control rate; Level 8: above 90% growth control rate; Level 7: above 80% growth control rate; Level 6: above 70% growth control rate; Level 5: above 60% growth control rate; Level 4: above 50% growth control rate; Level 3: above 20% growth control rate; Level 2: 5%-20% growth control rate; Level 1: below 5% growth control rate; conditions: post-emergence spray at 4-5 leaf stage, 250 g/ha active ingredient with 450 kg/ha water, rated after 3 weeks in greenhouse
In short: as §1

rorippa indica = assay: as above; parameters: key: Level 10: completely dead; Level 9: above 95% growth control rate; Level 8: above 90% growth control rate; Level 7: above 80% growth control rate; Level 6: above 70% growth control rate; Level 5: above 60% growth control rate; Level 4: above 50% growth control rate; Level 3: above 20% growth control rate; Level 2: 5%-20% growth control rate; Level 1: below 5% growth control rate; conditions: post-emergence spray at 4-5 leaf stage, 250 g/ha active ingredient with 450 kg/ha water, rated after 3 weeks in greenhouse
In short: as §1

Indian mallow = assay: as above; parameters: key: Level 10: completely dead; Level 9: above 95% growth control rate; Level 8: above 90% growth control rate; Level 7: above 80% growth control rate; Level 6: above 70% growth control rate; Level 5: above 60% growth control rate; Level 4: above 50% growth control rate; Level 3: above 20% growth control rate; Level 2: 5%-20% growth control rate; Level 1: below 5% growth control rate; conditions: post-emergence spray at 4-5 leaf stage, 250 g/ha active ingredient with 450 kg/ha water, rated after 3 weeks in greenhouse
In short: as §1

crab grass = assay: as above; parameters: key: Level 10: completely dead; Level 9: above 95% growth control rate; Level 8: above 90% growth control rate; Level 7: above 80% growth control rate; Level 6: above 70% growth control rate; Level 5: above 60% growth control rate; Level 4: above 50% growth control rate; Level 3: above 20% growth control rate; Level 2: 5%-20% growth control rate; Level 1: below 5% growth control rate; conditions: post-emergence spray at 4-5 leaf stage, 250 g/ha active ingredient with 450 kg/ha water, rated after 3 weeks in greenhouse
In short: as §1

bidens bipinnata = assay: as above; parameters: key: Level 10: completely dead; Level 9: above 95% growth control rate; Level 8: above 90% growth control rate; Level 7: above 80% growth control rate; Level 6: above 70% growth control rate; Level 5: above 60% growth control rate; Level 4: above 50% growth control rate; Level 3: above 20% growth control rate; Level 2: 5%-20% growth control rate; Level 1: below 5% growth control rate; conditions: post-emergence spray at 4-5 leaf stage, 250 g/ha active ingredient with 450 kg/ha water, rated after 3 weeks in greenhouse
In short: as §1

flixweed = assay: wheat field resistant broadleaf weed control, greenhouse spray at 4 leaf stage; parameters: key: Level 10: completely dead; Level 9: above 95% growth control rate; Level 8: above 90% growth control rate; Level 7: above 80% growth control rate; Level 6: above 70% growth control rate; Level 5: above 60% growth control rate; Level 4: above 50% growth control rate; Level 3: above 20% growth control rate; Level 2: 5%-20% growth control rate; Level 1: below 5% growth control rate; conditions: 250 g/ha of the active substance; 4 weeks after treatment; ALS inhibitor resistant
Protocol: (§2) The activity level standard of harmful plant destruction (i.e. growth control rate) is as follows:
(§3) The above described growth control rate is fresh weight control rate.
(§4) The seeds of alopecurus japonicas, flixweed, shepherd's purse, corn gromwell, chickweed, beckmannia syzigachne, and annual ryegrass and wheat seeds were put into a plastic pot loaded with soil, and then covered with 0.5-2 cm soil, the seeds were allowed to grow in good greenhouse environment. The test plants were treated at 4 leaf stage 2-3 weeks after sowing. The test compounds of the present invention were dissolved in acetone respectively, then added with methyl oleate emulsion and diluted by certain amount of water to certain concentration. The solution was sprayed to the plant with a sprayer. Then the plants were cultured for 4 weeks in greenhouse.

corn gromwell = assay: as above; parameters: key: Level 10: completely dead; Level 9: above 95% growth control rate; Level 8: above 90% growth control rate; Level 7: above 80% growth control rate; Level 6: above 70% growth control rate; Level 5: above 60% growth control rate; Level 4: above 50% growth control rate; Level 3: above 20% growth control rate; Level 2: 5%-20% growth control rate; Level 1: below 5% growth control rate; conditions: 250 g/ha of the active substance; 4 weeks after treatment; ALS inhibitor resistant
Protocol: as §2, §3, §4

shepherd's purse = assay: as above; parameters: key: Level 10: completely dead; Level 9: above 95% growth control rate; Level 8: above 90% growth control rate; Level 7: above 80% growth control rate; Level 6: above 70% growth control rate; Level 5: above 60% growth control rate; Level 4: above 50% growth control rate; Level 3: above 20% growth control rate; Level 2: 5%-20% growth control rate; Level 1: below 5% growth control rate; conditions: 250 g/ha of the active substance; 4 weeks after treatment; ALS inhibitor resistant
Protocol: as §2, §3, §4

chickweed = assay: as above; parameters: key: Level 10: completely dead; Level 9: above 95% growth control rate; Level 8: above 90% growth control rate; Level 7: above 80% growth control rate; Level 6: above 70% growth control rate; Level 5: above 60% growth control rate; Level 4: above 50% growth control rate; Level 3: above 20% growth control rate; Level 2: 5%-20% growth control rate; Level 1: below 5% growth control rate; conditions: 250 g/ha of the active substance; 4 weeks after treatment; ALS inhibitor resistant
Protocol: as §2, §3, §4

rice = assay: post-emergence stage experiment, crop (Table 1); parameters: key: Level 10: completely dead; Level 9: above 95% growth control rate; Level 8: above 90% growth control rate; Level 7: above 80% growth control rate; Level 6: above 70% growth control rate; Level 5: above 60% growth control rate; Level 4: above 50% growth control rate; Level 3: above 20% growth control rate; Level 2: 5%-20% growth control rate; Level 1: below 5% growth control rate; conditions: post-emergence spray at 4-5 leaf stage, 250 g/ha active ingredient with 450 kg/ha water, rated after 3 weeks in greenhouse
In short: as §1

wheat [2] = assay: wheat field test, crop selectivity, greenhouse spray at 4 leaf stage; conditions: 250 g/ha of the active substance; 4 weeks after treatment
Protocol: as §2, §3, §4

SMILES | effect on crop, Corn (level) (corn) | effect on crop, Wheat (level) (wheat [1]) | weed control effect, Green foxtail (level) (foxtail) | weed control effect, Echinochloa (level) (echinochloa) | weed control effect, Rorippa indica (level) (rorippa indica) | weed control effect, Indian mallow (level) (Indian mallow) | weed control effect, Crab grass (level) (crab grass) | weed control effect, Bidens bipinnata (level) (bidens bipinnata) | flixweed weed controlling effect (activity level) (flixweed) | corn gromwell weed controlling effect (activity level) (corn gromwell) | shepherd's purse weed controlling effect (activity level) (shepherd's purse) | chickweed weed controlling effect (activity level) (chickweed) | effect on crop, Rice (level) (rice) | Wheat (activity level, crop damage) (wheat [2])
CCc1nn(C)c(OC(=O)c2cn(C)nc2C)c1C(=O)c1ccc(C(F)(F)F)c(N2CCCCC2=O)c1Cl [Compound 111] | 1 (Level 1: below 5% growth control rate) | 1 (Level 1: below 5% growth control rate) | 2 (Level 2: 5%-20% growth control rate) | 10 | 10 | 10 | 3 (Level 3: above 20% growth control rate) | 4 (Level 4: above 50% growth control rate) | 10 | 10 | 10 | 10 | 10 | 1 (Level 1: below 5% growth control rate)
CCn1nc(C)c(C(=O)c2ccc(C(F)(F)F)c(-n3cc(C)cn3)c2Cl)c1O [Compound 138] | 2 (Level 2: 5%-20% growth control rate) | 1 (Level 1: below 5% growth control rate) | 10 | 10 | 10 | 0 | 5 (Level 5: above 60% growth control rate) | 5 (Level 5: above 60% growth control rate) | 10 | 10 | 10 | 10 | 7 (Level 7: above 80% growth control rate) | 1 (Level 1: below 5% growth control rate)
CCc1nn(C)c(O)c1C(=O)c1ccc(C(F)(F)F)c(-n2cc(C)cn2)c1Cl [Compound 140] | 0 | 0 | 7 (Level 7: above 80% growth control rate) | 8 (Level 8: above 90% growth control rate) | 10 | 10 | 1 (Level 1: below 5% growth control rate) | 8 (Level 8: above 90% growth control rate) | 10 | 10 | 10 | 10 | 10 | 0
Cc1nn(C)cc1C(=O)Oc1c(C(=O)c2ccc(C(F)(F)F)c(-n3cccn3)c2Cl)cnn1C [Compound 067] | 3 (Level 3: above 20% growth control rate) | 0 | 10 | 7 (Level 7: above 80% growth control rate) | 10 | 10 | 7 (Level 7: above 80% growth control rate) | – | 10 | 10 | 10 | 10 | 3 (Level 3: above 20% growth control rate) | 0
Cc1nn(C)cc1C(=O)Oc1c(C(=O)c2ccc(C(F)(F)F)c(-n3cccn3)c2Cl)c(C)nn1C [Compound 072] | 3 (Level 3: above 20% growth control rate) | 0 | 10 | 6 (Level 6: above 70% growth control rate) | 10 | 10 | 4 (Level 4: above 50% growth control rate) | – | 10 | 10 | 10 | 10 | 4 (Level 4: above 50% growth control rate) | 0

Continued, in another order:

effect on crop, Corn (level) (corn) | effect on crop, Wheat (level) (wheat [1]) | SMILES | weed control effect, Green foxtail (level) (foxtail) | weed control effect, Echinochloa (level) (echinochloa) | weed control effect, Rorippa indica (level) (rorippa indica) | weed control effect, Indian mallow (level) (Indian mallow) | weed control effect, Crab grass (level) (crab grass) | weed control effect, Bidens bipinnata (level) (bidens bipinnata) | flixweed weed controlling effect (activity level) (flixweed) | corn gromwell weed controlling effect (activity level) (corn gromwell) | shepherd's purse weed controlling effect (activity level) (shepherd's purse) | chickweed weed controlling effect (activity level) (chickweed) | effect on crop, Rice (level) (rice) | Wheat (activity level, crop damage) (wheat [2])
0 | 0 | CCOc1c(C(=O)Oc2c(C(=O)c3ccc(C(F)(F)F)c(N4CCCCCC4=O)c3Cl)c(C)nn2C)cnn1C [Compound 056] | 1 (Level 1: below 5% growth control rate) | 5 (Level 5: above 60% growth control rate) | 10 | 10 | 3 (Level 3: above 20% growth control rate) | 5 (Level 5: above 60% growth control rate) | 10 | 10 | 10 | 10 | 3 (Level 3: above 20% growth control rate) | 0
0 | 0 | Cc1cnn(-c2c(C(F)(F)F)ccc(C(=O)c3c(C)nn(C)c3OC(=O)c3cn(C)nc3C)c2Cl)c1 [Compound 088] | 10 | 10 | 10 | 10 | 9 (Level 9: above 95% growth control rate) | 4 (Level 4: above 50% growth control rate) | 10 | 10 | 10 | 10 | – | 0
